In patent publication US20230398125A1, “TREATING HEPATITIS” (Albireo AB, priority 2022, published 2023):
pEC50, pIC50: −log10 of the molar value. Like-named read-outs stand apart in the source and are kept apart here.

What was measured:
HBV (genotype D) = assay: In vitro HBV infection of NTCP-HepG2 cells, second study (HBeAg, HBc); type: cell-based, hepatitis B virus; conditions: for pIC50: Hepatitis B virus
Procedure: In a second study, recombinant HBV (genotype D) was produced in vitro as described in the literature (König et al. 2014). […] The myr-preS12-48 peptide (500 nM, genotype D) was used as control inhibitor. All infection experiments were performed in NTCP-HepG2 cells cultured in HGM in the presence of the corresponding compounds with different concentrations, 4% PEG-8000 (Sigma-Aldrich, Darmstadt, Germany), 2% DMSO (Carl Roth, Karlsruhe, Germany) and 100 ng/ml EGF (PeproTech, Hamburg, Germany) as final concentration each. Recombinant HBV was diluted in HGM to a final concentration of 2.5×10^10 HBV-genome copies per well (7×10^8 IU per well) and was added to the cells for 6 h. Subsequently, cells were washed with HGM and cultured in HGM supplemented with 2% DMSO. Medium was changed every 2-3 days until cells were fixed at day 9 p.i. with 3.8% paraformaldehyde (Sigma-Aldrich) in PBS, for 30 min at RT. The cells were immunostained at 37° C. for 1 h (1:400 dilution). For detection of HBV core (HBc) protein expression, a polyclonal anti-HBc antiserum from an immunized guinea pig (1:500 dilution, Eurogentec, Seraing, Belgium) was used as primary antibody and an Alexa Fluor 488-conjugated goat anti-guinea-pig-IgG-antibody (1:400 dilution, Thermo Fisher Scientific) as secondary antibody. Nuclei were stained with DAPI (0.5 μg/ml, Thermo Fisher Scientific). […] HBV-infected cells secrete the soluble HBeAg, which is a widely-accepted quantitative marker for productive HBV infection in cell culture experiments. In this study, HBeAg secreted from infected cells into the cell culture supernatant was determined of supernatant collected from day 5 to 9 p.i. using the Architect HBeAg assay, an automated in vitro diagnostic system (Abbott Laboratories, Wiesbaden, Germany).
Determination of IC50 values was done by nonlinear regression analysis using the equation log(inhibitor) vs. response settings of the GraphPad Prism 6.0 software (GraphPad). Data of [^3H]TC transport and [^3H]preS1 binding are expressed as means±SD from quadruplicate determinations. […]

HBV genotype C = assay: Serum HBsAg in HBV-infected PXB mice; type: in vivo, hepatitis B virus; conditions: 10 mg/kg and 30 mg/kg, Day 7
Procedure: Target volume of blood was collected from all surviving animals under isoflurane anesthesia via the retro-orbital plexus/sinus using Intramedic™ Polyethylene Tubing at each time point. Two microliters (2 μL) from the collected blood were used for human albumin measurements. The remaining blood was centrifuged to separate serum to be used for analyzing the indicated biomarkers. Blood samples were collected according to Table 8.
The individual blood samples of the animals were left at room temperature for at least 5 minutes to coagulate and then centrifuged at 13200×g, 4° C. for 3 minutes to obtain serum. The serum was divided into separate labeled microtubes and stored at −80° C. until analysis.
Serum HBsAg concentration was determined by SRL, Inc. (Tokyo, Japan) based on a Chemiluminescent Enzyme Immuno Assay (CLEIA) developed by Fujirebio ([…] HBsAg-HQ, […]® Prestoll). The dilution factor was 30 and 10, and the measurement range of this assay was between 0.005 and 150 IU/mL. For the 30-fold diluted samples, the measurement range was adjusted to be between 0.15 and 4500 IU/mL. And for the 10-fold diluted samples, the measurement range was adjusted to be between 0.05 and 1500 IU/mL. The lowest quantification limit of this assay was 0.15 IU/mL serum.

[1] = test system: HBV (HepG2 AD38 genotype D); assay: HBV infection of primary human hepatocytes, extracellular HBV DNA by qPCR; type: cell-based, hepatitis B virus; conditions: for pEC50: Hepatitis B virus

Structure (SMILES): CCCCC1CN(c2ccccc2)c2cc(SC)c(O/C=C(\F)C(=O)O)cc2S(=O)(=O)N1C (centres unmarked) [Compound 1, (Z)-3-((3-butyl-2-methyl-7-(methylthio)-1,1-dioxido-5-phenyl-2,3,4,5-tetrahydro-1,2,5-benzothiadiazepin-8-yl)oxy)-2-fluoroacrylic acid]
- pIC50 (HBV (genotype D); read-out: IC50 in vitro HBV infection (HBc)): 7.79
- pIC50 (HBV (genotype D); read-out: IC50 in vitro HBV infection (HBeAg)): 7.72
- HBeAg secretion relative to cut off value (HBV (genotype D); second study, highest inhibitor concentration 1000 nM): above the cut off value
- serum HBsAg compared to controls (HBV genotype C): lower
- pEC50 ([1]; HepG2, 18 h, Study #01, compound given 18 h post-infection): < 9.00
- pEC50 ([1]; HepG2, Study #01, #02 and #03 merged, four parameter regression, read-out: EC50 from fitted curve of merged data): 8.31
- pEC50 ([1]; HepG2, Study #01, compound given 18 h prior to infection, PHH, HBV DNA, read-out: EC50): 8.40
- pEC50 ([1]; HepG2, Study #02, PHH, read-out: EC50): > 8.20
- pEC50 ([1]; HepG2, Study #03, PHH, read-out: EC50): 7.96
- antiviral activity/potency when given 18 h post-infection ([1]; Study #01): lost
- Max inhibition ([1]; Study #01, 18 h prior to infection): 97%
- Max inhibition ([1]; Study #02): 88%
- inhibition at the lowest concentration tested ([1]; Study #02, 6.25 nmol/L): 58%
- Max inhibition ([1]; Study #03): 63%
